Each block holds one molecule with its values, some of them ahead of it.
Key:
PLD2 = biological target: T1, PLD2 (Homo sapiens, UniProt O14939); experiment: PLD2 activity: Proteostat/mKate2 with PLD1 inhibitor VU0150669; type: cell-based
T1 construct: endogenous in cells; host or cells: HEK 293 Jump-In cells expressing mKate2-Tau
Procedure: The assay was run in e18 primary cortical neurons from PLD1 or PLD2 KO mice cultured for 14 days. Alternatively, the assay can be run in the cells described above in the presence of excess PLD1 or PLD2 inhibitor to preclude that particular action from contributing to the effect of the drug.
4) On the day of experiment, cells were washed in warmed HBSS twice before media containing test compound (n=3 per compound per dose), inhibitor (355 nM ML298 or 50 nM VU0150669), or vehicle are added to the wells (1.5 mL in 6 well, 600 μL in 12 well). Plates were incubated for 24 hours at 37° C. with 5% CO2.

[1] = tested on: HEK 293 (Human Embryo Kidney) cell line
Procedure: The cells were grown in the presence of the antibiotic doxycycline. When the antibiotic is removed the cells produce Tau (which can be quantified), thus allowing the test compounds' effects on Tau's production to be compared. Doxycycline was removed for 72 hours prior to exposure to the test compounds to promote sufficient Tau production. Cells were subsequently plated into plates for each of the assays described below.

[2] = Photodiode array (PDA) detection in mouse brain; type: in vivo; details: FIG. 1
Source text: FIG. 1 is a graph showing a photodiode array (PDA) spectrum of WHYKD8 in mouse brain.
A photodiode array (PDA) was used to detect WHYKD8 in mouse brain (FIG. 1).

Autophagy Markers = experiment: Autophagy markers (Cyto-ID assay) in HEK 293 cells expressing mKate2 Tau; type: cell-based, Human; details: HEK 293 mKate2 Tau cells
Procedure: The dye used in the kit prevents its accumulation within lysosomes, but enables labelling of vacuoles associated with the autophagy pathway using the LC3 biomarker.
The test compounds (along with CytoID™ dye and Hoechst stain) were added to the cells and incubated for 3 hours. Reference compounds were also used in each plate, Rapamycin was used for autophagy induction and chloroquine was used for lysosomal inhibition. After 3 hours test compound was aspirated off and kept. Cells were then washed and read using a fluorescence plate reader. Hoescht, Cyto-ID™ and mKate2 were measured using 3 distinct wavelengths on the plate reader. The Hoescht measurement allowed normalisation of results across wells. After reading, test compound was re-added and the cells are left for a further 21 hours. At the 24 hour time point cells were once again washed and plates read using the fluorescence plate reader.
2) Test samples were prepared in warm FluoroBrite™ DMEM and with 10% FBS and 1% NEAA (FB-DMEM). […]
5) Treatment plate was then washed quickly 3 times with warm FB-DMEM (100 μL/well). […] At this point, the plate was ready for reading. See details in Reading Plate section. Hoescht was read at Excitation wavelength (Ex)=355 nm & Emission wavelength (Em)=446 nm. mKate2 was read at Ex=575 nm & Em=630 nm. Cyto-ID™ was read at Ex=463 nm & Em=534 nm. […]

T1 sequence (O14939 whole entry): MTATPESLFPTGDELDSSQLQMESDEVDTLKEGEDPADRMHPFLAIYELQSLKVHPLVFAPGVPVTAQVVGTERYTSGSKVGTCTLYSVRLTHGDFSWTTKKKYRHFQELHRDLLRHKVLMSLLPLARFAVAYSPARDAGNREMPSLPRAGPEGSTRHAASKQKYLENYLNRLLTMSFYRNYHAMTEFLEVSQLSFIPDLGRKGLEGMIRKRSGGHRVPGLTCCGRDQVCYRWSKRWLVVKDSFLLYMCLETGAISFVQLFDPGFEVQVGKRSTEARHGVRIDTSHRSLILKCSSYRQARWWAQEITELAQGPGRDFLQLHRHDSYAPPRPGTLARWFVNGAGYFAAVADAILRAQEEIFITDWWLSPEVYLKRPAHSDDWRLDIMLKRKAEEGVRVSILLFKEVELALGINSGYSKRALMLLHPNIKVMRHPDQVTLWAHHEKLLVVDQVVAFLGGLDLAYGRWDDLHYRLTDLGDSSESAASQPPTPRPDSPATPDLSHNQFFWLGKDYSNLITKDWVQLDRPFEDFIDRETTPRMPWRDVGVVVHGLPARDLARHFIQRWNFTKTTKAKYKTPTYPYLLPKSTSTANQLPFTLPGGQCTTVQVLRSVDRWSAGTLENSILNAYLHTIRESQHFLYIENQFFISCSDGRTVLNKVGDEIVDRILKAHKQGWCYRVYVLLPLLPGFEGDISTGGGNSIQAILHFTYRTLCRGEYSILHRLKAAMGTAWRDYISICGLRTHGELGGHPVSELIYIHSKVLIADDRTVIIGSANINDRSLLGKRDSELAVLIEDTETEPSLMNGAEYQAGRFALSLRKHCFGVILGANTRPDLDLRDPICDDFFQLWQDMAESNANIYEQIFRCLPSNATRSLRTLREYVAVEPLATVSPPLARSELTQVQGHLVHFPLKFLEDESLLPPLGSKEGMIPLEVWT

SMILES: c1cnc2c(SC3CCCC3)ncnc2c1 [WHYKD36]
Proteostat PLD2/PLD1 ratio (PLD2; ratio of Proteostat values): 1.5
mKate2 PLD2/PLD1 ratio (PLD2; ratio of mKate2 values): 1.7
CC50 [1]: 67 µM

detection in mouse brain by photodiode array [2]: readily detected
SMILES: Oc1ccc(CCNc2ncnc3ccc(Cl)cc23)cc1 [WHYKD8]

SMILES: Fc1ccc2ncnc(SC3CCOCC3)c2c1 [WHYKD19]
% Increase Autophagy Markers (Autophagy Markers): 350%

Reference: patent publication US11230558B2, “Activators of autophagic flux and phospholipase D and clearance of protein aggregates including tau and treatment of proteinopathies” (THE TRUSTEES OF COLUMBIA UNIVERSITY IN THE CITY OF NEW YORK, priority 2015, dated 2022)
